Measured values from ChEMBL document CHEMBL4130368, “Thienopyrimidine derivatives exert their anticancer efficacy via apoptosis induction, oxidative stress and mitotic catastrophe” (Eur J Med Chem, 2017).
Activity calls are given as the source filed them. The rule behind the calls is not given here.

How the values were obtained:
[1] = system: 2008; assay: Induction of apoptosis in human OV2008 cells assessed as early apoptotic cells at 1 uM measured after overnight incubation by mitotracker red/alexa fluor-488 Annexin V staining-based flow cytometry (reference value: 12.9%); format: functional
[2] = system: 2008; assay: Cell cycle arrest in human OV2008 cells assessed as accumulation at S phase at 2 uM measured after overnight incubation by propidium iodide staining-based flow cytometry (reference value: 10.8%); format: functional
[3] = system: HCT-116; assay: Induction of apoptosis in human HCT116 cells assessed as late apoptotic cells at 2 uM measured after overnight incubation by mitotracker red/alexa fluor-488 Annexin V staining-based flow cytometry (reference value: 0%); format: functional
[4] = system: 2008; assay: Cell cycle arrest in human OV2008 cells assessed as accumulation at G1 phase at 2 uM measured after overnight incubation by propidium iodide staining-based flow cytometry (reference value: 52.6%); format: functional
[5] = system: HCT-116; assay: Induction of apoptosis in human HCT116 cells assessed as early apoptotic cells at 1 uM measured after overnight incubation by mitotracker red/alexa fluor-488 Annexin V staining-based flow cytometry (reference value: 8.36%); format: functional
[6] = system: HCT-116; assay: Antiproliferative activity against bak deficient human HCT116 cells after 72 hrs by MTT assay; format: functional, cell-based; conditions: HCT-116, 72 h
[7] = system: 2008; assay: Cell cycle arrest in human OV2008 cells assessed as accumulation at G1 phase at 1 uM measured after overnight incubation by propidium iodide staining-based flow cytometry (reference value: 52.6%); format: functional
[8] = system: 2008; assay: Induction of apoptosis in human OV2008 cells assessed as early apoptotic cells at 2 uM measured after overnight incubation by mitotracker red/alexa fluor-488 Annexin V staining-based flow cytometry (reference value: 12.9%); format: functional
[9] = system: A2780; assay: Induction of apoptosis in human A2780 cells assessed as early apoptotic cells at 1 uM measured after overnight incubation by mitotracker red/alexa fluor-488 Annexin V staining-based flow cytometry (reference value: 11.9%); format: functional
[10] = system: 2008; assay: Inhibition of colony formation in human OV2008 cells at 1 to 2 uM after 24 hrs by crystal violet dye based assay; format: functional, cell-based
[11] = system: HCT-116; assay: Cell cycle arrest in human HCT116 cells assessed as accumulation at G2 phase at 2 uM measured after overnight incubation by propidium iodide staining-based flow cytometry (reference value: 24%); format: functional
[12] = system: A2780; assay: Induction of apoptosis in human A2780 cells assessed as late apoptotic cells at 1 uM measured after overnight incubation by mitotracker red/alexa fluor-488 Annexin V staining-based flow cytometry (reference value: 0.015%); format: functional
[13] = system: HCT-116; assay: Cell cycle arrest in human HCT116 cells assessed as accumulation at G2 phase at 1 uM measured after overnight incubation by propidium iodide staining-based flow cytometry (reference value: 24%); format: functional
[14] = system: 2008; assay: Induction of mitotic catastrophe in human OV2008 cells assessed as formation of large with flattened cells at 0.5 to 2 uM measured after overnight incubation by DAPI-staining based microscopy; format: functional, cell-based
[15] = system: A2780; assay: Cell cycle arrest in human A2780 cells assessed as accumulation at S phase at 1 uM measured after overnight incubation by propidium iodide staining-based flow cytometry (reference value: 15.2%); format: functional
[16] = system: 2008; assay: Induction of morphological changes in human OV2008 cells at 0.1 to 3 uM after 68 hrs by microscopic method; format: functional, cell-based
[17] = system: 2008; assay: Induction of apoptosis in human OV2008 cells assessed as late apoptotic cells at 2 uM measured after overnight incubation by mitotracker red/alexa fluor-488 Annexin V staining-based flow cytometry (reference value: 0.255%); format: functional
[18] = system: 2008; assay: Cell cycle arrest in human OV2008 cells assessed as accumulation at S phase at 1 uM measured after overnight incubation by propidium iodide staining-based flow cytometry (reference value: 10.8%); format: functional
[19] = system: HCT-116; assay: Cell cycle arrest in human HCT116 cells assessed as accumulation at subG1 phase at 2 uM measured after overnight incubation by propidium iodide staining-based flow cytometry (reference value: 0.154%); format: functional
[20] = system: HCT-15; assay: Antiproliferative activity against human HCT15 cells after 72 hrs by MTT assay; format: functional, cell-based; conditions: HCT-15, 72 h
[21] = system: 2008; assay: Induction of cellular oxidative stress in human OV2008 cells assessed as increase in ROS levels at 0.5 to 4 uM after 48 hrs by DCFDA dye-based fluorescence microscopic method; format: functional, cell-based
[22] = system: A2780; assay: Induction of mitotic catastrophe in human A2780 cells assessed as multinuclear changes at 0.5 to 2 uM measured after overnight incubation by DAPI-staining based microscopy; format: functional, cell-based
[23] = system: HCT-116; assay: Induction of mitotic catastrophe in human HCT116 cells assessed as formation of de-condensed multiple micronuclei at 0.5 to 2 uM measured after overnight incubation by DAPI-staining based microscopy; format: functional, cell-based
[24] = system: HCT-116; assay: Cell cycle arrest in human HCT116 cells assessed as accumulation at […] at 1 uM measured after overnight incubation by propidium iodide staining-based flow cytometry (reference value: 9.70%); format: functional
[25] = system: 2008; assay: Induction of apoptosis in human OV2008 cells assessed as necrotic cells at 1 uM measured after overnight incubation by mitotracker red/alexa fluor-488 Annexin V staining-based flow cytometry (reference value: 6.31%); format: functional
[26] = system: HCT-116; assay: Inhibition of colony formation in human HCT116 cells at 1 to 2 uM after 24 hrs by crystal violet dye based assay; format: functional, cell-based
[27] = system: LN-229; assay: Antiproliferative activity against human LN229 cells after 72 hrs by MTT assay; format: functional, cell-based; conditions: LN-229, 72 h
[28] = system: A2780; assay: Cell cycle arrest in human A2780 cells assessed as accumulation at G1 phase at 1 uM measured after overnight incubation by propidium iodide staining-based flow cytometry (reference value: 51.1%); format: functional
[29] = Selectivity index, ratio of IC50 for CHO cells to IC50 for human LN229 cells; format: toxicity; conditions: Chinese hamster (CHO cells), CHO cells versus LN229 cells, read-out: Ratio IC50
[30] = Selectivity index, ratio of IC50 for CHO cells to IC50 for human A2780 cells; format: toxicity; conditions: Chinese hamster (CHO cells), CHO cells versus A2780 cells, read-out: Ratio IC50
[31] = system: HCT-116; assay: Induction of apoptosis in human HCT116 cells assessed as necrotic cells at 1 uM measured after overnight incubation by mitotracker red/alexa fluor-488 Annexin V staining-based flow cytometry (reference value: 2.67%); format: functional
[32] = system: 2008; assay: Induction of mitotic catastrophe in human OV2008 cells assessed as formation of de-condensed multiple micronuclei at 0.5 to 2 uM measured after overnight incubation by DAPI-staining based microscopy; format: functional, cell-based
[33] = system: A2780; assay: Induction of apoptosis in human A2780 cells assessed as early apoptotic cells at 2 uM measured after overnight incubation by mitotracker red/alexa fluor-488 Annexin V staining-based flow cytometry (reference value: 11.9%); format: functional
[34] = system: A2780; assay: Cell cycle arrest in human A2780 cells assessed as accumulation at subG1 phase at 2 uM measured after overnight incubation by propidium iodide staining-based flow cytometry (reference value: 8.88%); format: functional
[35] = system: A2780; assay: Antiproliferative activity against human A2780 cells after 72 hrs by MTT assay; format: functional, cell-based; conditions: A2780, 72 h
[36] = system: HCT-116; assay: Induction of apoptosis in human HCT116 cells assessed as early apoptotic cells at 2 uM measured after overnight incubation by mitotracker red/alexa fluor-488 Annexin V staining-based flow cytometry (reference value: 8.36%); format: functional

COc1ccc(-c2nc(O)c3c4c(sc3n2)CCCC4)cc1
Activity [1]: 20.3%
Activity [2]: 31.8%
Activity [3]: 0%
Activity [4]: 13.6%
Activity [5]: 11.6%
IC50 [6]: 1400 nM
Activity [7]: 19.5%
Activity [8]: 22.2%
Activity [9]: 25.8%
inhibition [10]: Dose-dependent effect
Activity [11]: 54.8%
Activity [12]: 0%
Activity [13]: 47.1%
Activity [14]: Active
Activity [15]: 10.4%
Activity [16]: Active
Activity [17]: 0.057%
Activity [18]: 20.4%
Activity [19]: 0.097%
IC50 [20]: 700 nM
Activity [21]: Active
Activity [22]: Active
Activity [23]: Active
Activity [24]: 12.3%
Activity [25]: 4.31%
inhibition [26]: Dose-dependent effect
IC50 [27]: 500 nM
Activity [28]: 20.2%
selectivity ratio [29]: 17 to 28
selectivity ratio [30]: 17 to 28
Activity [31]: 1.48%
Activity [32]: Active
Activity [33]: 51.2%
Activity [34]: 7.54%
IC50 [35]: 1200 nM
Activity [36]: 25.9%
